Measurements taken from patent US4481194A, “Des-proline-des-glycine vasopressin antagonists” (SmithKline Beckman Corporation, priority 1984, dated 1984).
Numbered stars: 1 amine (or outer) side, 2 acyl side, 3 side chain; on linkers, the order of the positions; unused ones are H or OH. Bridge positions count the residues as written; N and C are the ends. Square brackets hold non-standard residues; d marks the D form. Peptide text beside a SMILES is read from it. X1 = O=C(CC1(S[*:2])CCCCC1)[*:1]; Abu = CC[C@H](N)C(=O)O

Experiments:
[1] = biological target: T1, vasopressin stimulated adenylate cyclase (Sus scrofa, UniProt P32307); assay: Vasopressin stimulated adenylate cyclase activity in kidney medullary membrane; format: biochemical; details: In Vitro (Pig); antagonism of vasopressin stimulated adenylate cyclase, medullary tissue
T1 construct: in the medullary tissue of hog or human kidneys; from tissue; host or cells: kidney medullary membranes (hog or human)
T1 sequence (P32307 whole entry): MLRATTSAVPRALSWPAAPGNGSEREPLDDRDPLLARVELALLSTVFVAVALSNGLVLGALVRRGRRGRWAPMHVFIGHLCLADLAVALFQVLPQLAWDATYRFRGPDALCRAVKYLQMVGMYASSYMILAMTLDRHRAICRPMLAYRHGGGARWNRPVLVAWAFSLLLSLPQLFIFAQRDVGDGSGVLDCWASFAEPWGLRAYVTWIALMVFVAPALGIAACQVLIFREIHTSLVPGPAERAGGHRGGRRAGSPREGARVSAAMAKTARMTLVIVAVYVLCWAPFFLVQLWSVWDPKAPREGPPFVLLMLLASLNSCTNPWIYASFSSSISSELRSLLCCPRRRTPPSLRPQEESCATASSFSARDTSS
Protocol: In the test procedure for assay of adenylate cyclase activity, the amount of ^32 P/cAMP formed in the absence of medullary membrane is determined (blank). The blank value is subtracted from all experimental data. The compound is tested for its effect on basal adenylate cyclase activity and/or on vasopressin stimulated activity. Each determination is carried out in triplicate. The Ka value is derived from a Lineweaver-Burkeplot. Rel. Vmax =(Vmax drug/Vmax vasopressin)×100. Ki =I/[Ka'/Ka)-1] where I is the concentration of the antagonist, and Ka' and Ka are the concentrations of vasopressin required to give half maximal activity of adenylate cyclase in the presence and absence of antagonist, respectively.

hydropenic rat = assay: Hydropenic rat screen (anti-ADH activity in vivo); details: estimated dose of peptide delivered ip which reduces Uosm from hydropenic levels to 300 mOsmoles/kg H2O
Protocol: Antagonistic activity toward the natural antidiuretic hormone (anti-ADH activity) is determined, in vitro, in the medullary tissue of hog or human kidneys and, in vivo, in the hydropenic rat. The in vitro assay procedures for vasopressin stimulated adenylate cyclase activation or vasopression binding activity are described by F. Stassen et al., J. Pharmacology and Experimental Therapeutics, 223, 50-54 (1982).
The assay for anti-ADH activity is the hydropenic rat protocol is described below:
Food and water are removed from male rats approximately 18 hours prior to testing. Animals are housed 4 per metabolism cage. At 0 hour, the test compound is administered intraperitoneally to the test group and an equivalent volume of vehicle is administered to both control groups (fasted and non-fasted). Urine volume and osmolality are measured every hour for 4 hours. Test values are recorded as ml of urine excreted (cumulative), mEq/rat electrolyte excreted, mg/rat urea excreted, and osmolality in milli-Osmoles/kg H2 O. A tolerance test is used to determine significance. ED300 is defined as the dose of compound (μg/kg) required to lower urine osmolality to 300 m-Osmoles/kg.

[2] = biological target: T2, vasopressin receptors [V2 -receptors] (Sus scrofa, UniProt P32307); assay: 3H-vasopressin binding assay, hog kidney membranes; details: In Vitro (Pig); competitive inhibition of 3H-vasopressin binding; read-out: BB
T2 construct: average KD value determined on 3 preparations of hog kidney membranes; from tissue; host or cells: hog kidney medullary membranes
T2 sequence (P32307 whole entry): as above
Protocol: In the test procedure for binding assays, the amount of ^3 H-vasopressin bound in the absence and in the presence of an excess of vasopressin (7.5×10^-6 M) is measured in triplicate. These values represent total and non-specific binding, respectively.

CCOc1ccc(C[C@H]2NC(=O)CC3(CCCCC3)SSC[C@@H](C(=O)N3CCC[C@H]3C(=O)N[C@@H](CCCNC(=N)N)C(=O)NCC(N)=O)NC(=O)[C@H](CC(N)=O)NC(=O)[C@H](C(C)C)NC(=O)[C@H](Cc3ccccc3)NC2=O)cc1 [C, [mercapto-β,cyclopentamethylenepropionic acid)2-(O--ethylD-tyrosine)-4-valine-8-argininevasopressin, reference compound] ([dY](Et)FVNCPRG-NH2; linker N-5 via X1 (inferred); C-terminus assumed)
Ki [1]: 9.8 nM
ED300 (hydropenic rat): 11.0 µg/kg

CCOc1ccc(C[C@H]2NC(=O)CC3(CCCCC3)SSC[C@@H](C(=O)N[C@@H](CCCNC(=N)N)C(N)=O)NC(=O)[C@H](CC(N)=O)NC(=O)[C@H](CC)NC(=O)[C@H](Cc3ccccc3)NC2=O)cc1 [B, 1(mercapto-β,cyclopentamethylenepropionic acid)2-(O--ethylD-tyrosine)-4-aminobutyric acid7-desproline-8-arginine-9-desglycinevasopressin] ([dY](Et)F[Abu]NCR-NH2; linker N-5 via X1)
Ki [1]: 6.2 nM
ED300 (hydropenic rat): 121.8 µg/kg

CCOc1ccc(C[C@H]2NC(=O)CC3(CCCCC3)SSC[C@@H](C(=O)N[C@@H](CCCNC(=N)N)C(N)=O)NC(=O)[C@H](CC(N)=O)NC(=O)[C@H](C(C)C)NC(=O)[C@H](Cc3ccccc3)NC2=O)cc1 [A] ([dY](Et)FVNCR-NH2; linker N-5 via X1)
Ki [2]: 9 µM
Ki [1]: 2.5 nM
